We go through 3 compounds from article PMC5532651, “Bistratamides M and N, Oxazole-Thiazole Containing Cyclic Hexapeptides Isolated from Lissoclinum bistratum Interaction of Zinc (II) with Bistratamide K” (Marine Drugs, 2017).

The test system of series [1] is MDA-MB-231 human breast adenocarcinoma cells. The experiment in a line: Cell proliferation / cytotoxicity, MDA-MB-231 breast. In kind it is cell-based. The following applies: for LC50: concentration producing 50% cell death vs control; for GI50: concentration producing 50% inhibition of cell growth vs control, NCI algorithm; for TGI: concentration producing total growth inhibition vs control. As for the experimental part: (§1) The cytotoxic activity of compounds 1 and 2 was tested against NSLC A-549 human lung carcinoma cells, MDA-MB-231 human breast adenocarcinoma cells, HT-29 human colorectal carcinoma cells, and PSN1 (human pancreatic carcinoma cells). The concentration giving 50% inhibition of cell growth (GI50) was calculated according to the procedure described in the literature. Cell survival was estimated using the National Cancer Institute (NCI) algorithm. Three dose response parameters were calculated for 1 and 2.

For series [2], the system named is HT-29 human colorectal carcinoma cells. The experiment in a line: Cell proliferation / cytotoxicity, HT-29 colon. In kind it is cell-based. The note with it: for LC50: concentration producing 50% cell death vs control; for GI50: concentration producing 50% inhibition of cell growth vs control, NCI algorithm; for TGI: concentration producing total growth inhibition vs control. As for the experimental part:
as §1

Series [3] has as its system NSLC A-549 human lung carcinoma cells. Nature of the series: Cell proliferation / cytotoxicity, NSLC A-549 lung. In kind it is cell-based. The note with it: for LC50: concentration producing 50% cell death vs control; for GI50: NCI algorithm; for TGI: concentration producing total growth inhibition vs control. As for the experimental part: as §1
Series [4] deals with PSN1 (human pancreatic carcinoma cells). Nature of the series: Cell proliferation / cytotoxicity, PSN1 pancreas. In kind it is cell-based. The following applies: for LC50: concentration producing 50% cell death vs control; for GI50: concentration producing 50% inhibition of cell growth vs control, NCI algorithm; for TGI: concentration producing total growth inhibition vs control. As to the method:
as §1

Series [5] relates to recombinant human topoisomerase I. Nature of the series: Enzymatic Topoisomerase 1 (Top1) assay. The following applies: up to highest concentration tested 100 μM (range 100 to 0.2 μM); 50 pM enzyme; 1 h preincubation, 1 h reaction, room temperature, pH 8.0; H19 dye fluorescence. In kind it is biochemical. As for the experimental part: The activity of human topoisomerase I was determined based on the increase in fluorescence of a commercial dye (“H19”, Profoldin, Westborough, MA, USA) when interacting with DNA and the higher number of interaction points present in supercoiled DNA with respect to relaxed DNA. Therefore, the activity of the enzyme causes a decrease of fluorescence intensity when the probe is added. The enzyme reaction is performed in a final volume of 20 μL in 384 black wells. Compounds 1 and 2, at twice their final concentrations, were mixed with 50 pM recombinant human topoisomerase I (Profoldin, Westborough, MA, USA) in 10 μL of 10 mM Tris-HCl pH 8.0 with 150 mM sodium chloride, 3 mM magnesium chloride and 5% (v/v) glycerol and incubated for 1 h at room temperature. Then, reaction was started by the addition of 10 μL of supercoiled DNA (Profoldin, Westborough, MA, USA) at 25 μg/mL in the same buffer and the mixture was incubated at room temperature for 1 h. […] After 1 h at room temperature the degree of conversion from supercoiled to relaxed DNA was determined by monitoring fluorescence intensity (excitation at 485 nm, emission at 535 nm) in a microtiter plate reader. […] IC50 values were calculated by fitting the results to a typical four parameters logistic curve by nonlinear regression analysis.

Series [6] has as its system human tumor cell lines A-549 (lung), HT-29 (colon), MDA-MB-231 (breast) and PSN1 (pancreas). Nature of the series: Cytotoxicity against four human tumor cell lines (summary in words). In kind it is cell-based. The note with it: GI50 values in the micromolar range. As for the experimental part: as §1
Setting [7] is: concentration producing 50% inhibition of cell growth vs control.

Usually LC50 stands for the concentration that kills 50% of the test population. One may read the GI50 as the concentration that inhibits growth by half. One may read the TGI as the concentration giving total growth inhibition. A higher TGI goes with lower sensitivity of the cells.

On to `CC[C@H](C)[C@@H]1NC(=O)c2csc(n2)[C@@H](C)NC(=O)c2coc(n2)[C@H](C)NC(=O)c2csc1n2` [Bistratamide N (2), Bistratamide N], for which the LC50 was >20.0 µM in series [1], >20 µM in series [2], >20.0 µM in series [3] and >20.0 µM in series [4]. The GI50 is > 20 µM in series [1], 13 µM in series [2], 11 µM in series [3] (setting [7]) and 15 µM in series [4]. In addition, the TGI in series [1] was >20.0 µM; in series [2], >20 µM; in series [3], >20.0 µM; in series [4] it was >20.0 µM. Moreover, the Top1 inhibition result in series [5] is on record as “failed to show any hint of inhibition even at the highest concentration tested”. Also, in series [6], the “cytotoxic activity (in words)” value was “moderate cytotoxic activity with GI50 values in the micromolar range”.

In the case of `CC[C@H](C)[C@@H]1NC(=O)c2csc(n2)[C@H](C)NC(=O)c2coc(n2)[C@H](C)NC(=O)c2csc1n2` [Bistratamide M (1), Bistratamide M], the LC50 in series [1], in series [2], in series [3] and in series [4] was >20.0 µM in each case. The GI50 in series [1] was 18 µM; in series [2], 16 µM; in series [3] (setting [7]) it was 9.1 µM; in series [4] it was 9.8 µM. The TGI in series [1], in series [2], in series [3] and in series [4] was >20.0 µM in each case. In addition, the Top1 inhibition entry in series [5] is on record as “failed to show any hint of inhibition even at the highest concentration tested”. Also, the “cytotoxic activity (in words)” value in series [6] is on record as “moderate cytotoxic activity with GI50 values in the micromolar range”.

Turning to `COc1cccc2c1C(=O)c1c(O)c3c(c(O)c1C2=O)C[C@@](O)(C(=O)CO)C[C@@H]3O[C@H]1C[C@H](N)[C@H](O)[C@H](C)O1` [Doxorubicin, reference compound], the GI50 in series [1] (Homo sapiens) was determined as 0.2 µM; in series [2] (Homo sapiens), 0.3 µM; in series [3] (Homo sapiens, A549, concentration producing 50% inhibition of cell growth vs control), 0.2 µM; in series [4] (Homo sapiens), 0.2 µM. Also, the LC50 in series [1] was 2.4 µM; in series [2], >17.2 µM; in series [3] it was >17.2 µM; in series [4], 3.1 µM. Also, the TGI in series [1] is 0.5 µM; in series [2], 0.9 µM; in series [3] it was 0.9 µM; in series [4], 0.5 µM.
